Assay results published in US9144569B2, “Methods of administering an aromatase inhibitor, prostaglandin and GnRH for regulating ovulation in cattle” (UNIVERSITY OF SASKATCHEWAN, priority 2010, dated 2015).
Marks after values point to notes of the source that are not given here.

Columns and labels:
[1] = tested on: plasma LH; assay: Example I: plasma LH by double-antibody radioimmunoassay after single iv dose; format: in vivo, cattle; settings: for plasma LH concentrations compared to saline-treated controls: doses combined
Protocol: Heifers in which a CL was detected during the initial examination were given […] cloprostenol (PGF, Estrumate™, Schering-Plough Animal Health, Pointe-Claire, QC, Canada) intramuscularly (im) to induce regression of the CL and to synchronize ovulation. Heifers were examined daily by transrectal ultrasonography to detect ovulation. Transvaginal ultrasound-guided follicular aspiration of follicles ≧5 mm was performed five to eight days after ovulation to synchronize wave emergence. Heifers were examined daily by transrectal ultrasonography to detect follicular wave emergence, which was expected 1 to 1.5 days after follicular ablation. Four days after follicular ablation (approximately 2.5 days after follicular wave emergence), and at the time follicular dominance becomes apparent, heifers were assigned randomly to the following treatment groups and given a single intravenous dose of 1) 500 μg/kg of letrozole (high dose group, n=9), 2) 250 μg/kg of letrozole (medium dose group, n=10), 3) 125 μg/kg of letrozole (low dose group, n=10), or 4) 20 ml of phosphate buffered saline (PBS control group, n=10). For practical purposes, the dose of letrozole was calculated based on an average weight of 400 kg for all heifers. The average oral dose used in women (2.5-5 mg per day for 5 days) was used to estimate the medium dose for cattle. The high and low doses were set as double and half the medium dose, respectively. The day of treatment was defined as Day 0. For intravenous injection, letrozole was prepared in 95% ethanol at a final concentration of 5 mg per ml, resulting in an injection volume of 10-40 ml. The experiment was performed in four replicates (n=2-3 per group per replicate) and each heifer was used only once.
Statistical analyses were done using the Statistical Analysis System software package (SAS Learning Edition 9.1, 2006; SAS Institute Inc., Cary, N.C., USA). Time-series hormone data, plasma letrozole concentration, and follicular diameter profiles were analyzed by repeated measures, using the PROC MIXED procedure. The main effects were treatment (high, medium and low dose, and control), time, and their interactions.

[2] = tested on: Hereford-cross beef heifers; assay: Example II: 3-day letrozole regimen in heifers, ovarian ultrasonography; format: in vivo, cattle; settings: for Inter-ovulatory interval / Inter-wave interval: 85 μg/kg/day iv; for Inter-wave interval: mean±SEM
Protocol: Hereford-cross beef heifers, 14 to 20 months of age and weighing between 233 and 404 kg, were chosen from a herd of 50 animals maintained in outdoor corrals at the University of Saskatchewan Goodale Research Farm (52° North and 106° West). Heifers were fed alfalfa/grass hay and grain to gain approximately 1.3 kg per day and had water ad libitum during the experimental period from May to July. Heifers were initially examined by transrectal ultrasonography (7.5 MHz linear-array transducer, Aloka SSD-900; Tokyo, Japan) to confirm that they were postpubertal by the presence of a CL [33].
Four days after follicular ablation, heifers were given 500 μg of cloprostenol (PGF, Estrumate, Schering-Plough Animal Health, Pointe-Claire, QC, Canada) intramuscularly (im) to induce regression of the CL and to synchronize ovulation. The experiment was performed in two replicates (n=20-27 per replicate) and each heifer was used only once. In replicate 1, heifers were assigned randomly at the time of ovulation (Day 0) to the following groups and given a 3-day regimen of letrozole from Days 1 to 3 (n=5), Days 3 to 5 (n=5), Days 5 to 7 (n=5), or no treatment (control group, n=5). In replicate 2, heifers were similarly assigned to groups and given letrozole from Days 1 to 3, (n=5), Days 3 to 5 (n=4), or Days 5 to 7 (n=4), but untreated control heifers were arranged in three sub-groups to serve as contemporaneous controls for each letrozole-group during intensive blood sampling periods (i.e., control Days 1 to 3, n=4; control Days 3 to 5, n=4; and control Days 5 to 7, n=5). For practical purposes, the total dose of letrozole (250 μg/kg) was calculated on the basis of an average weight of 350 kg for all heifers and administered intravenously in daily divided doses over 3 days (85 μg/kg per day). For intravenous injection, letrozole was prepared in 95% ethanol to a final concentration of 5 mg/ml, resulting in an injection volume of 6 mL/day.
Ultrasound examinations were recorded on a sketch sheet in which each ovary and its structures (CL [37] and follicles ≧4 mm in diameter) were represented in size and relative location. Ovulation was defined as the disappearance of any follicle ≧8 mm between two consecutive daily examinations, and was confirmed by the subsequent development of a CL [39]. Follicular wave emergence was defined retrospectively as the day when the dominant follicle was first identified at a diameter of 4 or 5 mm. If the dominant follicle was not identified until it reached 6 or 7 mm, the previous day was considered the day of follicular wave emergence. The dominant follicle of a wave was defined as the largest antral follicle of that wave after deviation, and the first subordinate follicle as the second largest antral follicle originated from the same wave. The day of onset of follicular and luteal regression was defined as the first day of an apparent constant decrease in follicular and luteal diameters, respectively.
Statistical analyses were done using the Statistical Analysis System software package (SAS Learning Edition 9.1, 2006; SAS Institute Inc., Cary, N.C., USA). Time-series hormone data, plasma letrozole concentration, and follicular and luteal diameter profiles were analysed by repeated measures, using the PROC MIXED procedure. The main effects were treatment, time, and their interactions. […] Single point measurements (interwave and interovulatory intervals, interval from ovulation to onset of CL regression, mean and basal LH concentrations, LH pulse amplitude and frequency, and pharmacokinetic parameters for letrozole) were analysed by analysis of variance. […] If significant main effects or interactions (P≦0.05) were detected, Tukey's post-hoc test was used for multiple comparisons.

N#Cc1ccc(C(c2ccc(C#N)cc2)n2cncn2)cc1 [Letrozole, letrozole]
plasma LH concentrations compared to saline-treated controls ([1]; 4-day period after single iv dose, P=0.01): higher | plasma LH concentrations compared to saline-treated controls ([1]; first 12 hours following single iv dose, P=0.05): higher | duration of elevated LH levels after treatment ([1]; single iv dose): at least 4 days | time after letrozole at which endogenous LH began to rise ([1]; single iv dose): 2 h | Inter-ovulatory interval ([2]; Days 1 to 3, n=10): 20.9 ± 0.46^a days | Inter-wave interval ([2]; Days 1 to 3, n=10): 8.9 ± 0.35^a days | Inter-ovulatory interval ([2]; Days 3 to 5, n=9): 20.1 ± 0.49^a days | Inter-wave interval ([2]; Days 3 to 5, n=9): 10.0 ± 0.37^ab days | Inter-ovulatory interval ([2]; Days 5 to 7, n=9): 21.2 ± 0.49^a days | Inter-wave interval ([2]; Days 5 to 7, n=9): 10.7 ± 0.37^b days | Inter-wave interval ([2]; Days 5 to 7, n=9, listed as letrozole): 10.7 days | growth of the extant dominant follicle compared to controls ([2]; 3-day regimen, treatment groups combined (n=28) vs untreated, P<0.01): grew longer and to a greater diameter | diameter profile of the largest subordinate follicle compared to controls ([2]; treated Days 1 to 3, P<0.05): larger | diameter profile of the largest subordinate follicle compared to controls ([2]; treated Days 3 to 5): intermediate | diameter profile of the largest subordinate follicle compared to controls ([2]; treated Days 5 to 7): intermediate
